From patent publication US5292901A, “Benzodioxole derivatives” (Eisai Co., Ltd., priority 1987, dated 1994) come the findings set out here.

Read-outs that look alike come from different tables or passages of the source.

The subject of assay [1] is liver injury induced by D-galactosamine. As to the kind of experiment: Experimental Example 1b: effect on liver injury induced by D-galactosamine in rats (group I-b). The class given is in vivo, male Fischer (F344) rats. The conditions noted are these: Rattus norvegicus, po, 48 h, Table 1b, D-galactosamine 400 mg/kg, compound 100 mg/kg in 0.5% methylcellulose.
For assay [2] the test system is unchanged. As to the kind of experiment: Experimental Example 2b: inhibition of liver injury in rats (group I-b), method given as that of Experimental Example 1b. To be noted: Rattus norvegicus, 48 h; Table 2b; compound 100 mg/kg oral in 0.5% methylcellulose; read-out: Inhibition ratio (%) GPT. In kind it is in vivo, male Fischer (F344) rats. The procedure:
The test was conducted in the same manner as shown in Experimental Example 1b except that the test compound was orally administered to the rats in a dose of 100 mg/kg in 0.5% methylcellulose solution.

For assay [3] the test system is unchanged. Kind of assay: Experimental Example 1e: effect on liver injury induced by D-galactosamine in rats (group I-e). The conditions noted are these: Rattus norvegicus, po, 48 h, Table 1e, D-galactosamine 400 mg/kg, compound 100 mg/kg in 0.5% aqueous methylcellulose. The class given is in vivo, male Fischer (F344) rats. As to the method:
The D-galactosamine was used in the form of a solution having a concentration of 200 mg/ml, obtained by dissolving D-galactosamine in a physiological saline solution to obtain a dilute D-galactosamine solution and adjusting the pH of the dilute solution to 7.0 with 10N aqueous potassium hydroxide. Blood was collected from the rat's tail vein 48 h after the injection of D-galactosamine. The blood coagulation time was determined by the […]) and GPT activity in the blood plasma was determined by an enzymatic method.

Assay [4] shares this test system. As to the kind of experiment: Experimental Example 1f: effect on liver injury induced by D-galactosamine in rats (group I-f). The class given is in vivo, male Fischer (F344) rats. The conditions noted are these: Rattus norvegicus, po, 48 h, Table 1f, D-galactosamine 400 mg/kg, compound 100 mg/kg in 0.5% methylcellulose. As to the method: (§1) 300 mg/kg of D-galactosamine was administered to male Fischer (F344) rats weighing around 180 g by subcutaneous injection to induce liver injury. Each compound was dissolved in distilled water was given by oral administration in a dose of 50 mg/kg one hour after the injection of D-galactosamine.
(§2) The D-galactosamine was used in the form of a solution having a concentration of 200 mg/ml, obtained by dissolving D-galactosamine in a physiological saline solution to obtain a dilute D-galactosamine solution and adjusting the pH of the dilute solution to 7.0 with 10N aqueous potassium hydroxide.
(§3) Blood was collected from the rat's tail vein 48 h after the injection of D-galactosamine. The blood coagulation time was determined by the hepaplastin test (HPT) and GPT activity in the blood plasma was determined by an enzymatic method.
The test was conducted in the same way as shown in Experimental Example 1a except that 400 mg/kg of D-galactosamine was administered in its physiological saline solution and each test compound was used in an amount of 100 mg/kg in 0.5% methylcellulose liquid.

Assay [5] can be described thus: Study of plants used as folk medicines for liver trouble remedies. The conditions noted are these: in words.
Assay [6] relates to liver injury induced by D-galactosamine. Kind of assay: Experimental Example 1d: effect on liver injury induced by D-galactosamine in rats (group I-d). In kind it is in vivo, male Fischer (F344) rats. The conditions noted are these: Rattus norvegicus, Table 1d, D-galactosamine 300 mg/kg s.c., compound 50 mg/kg oral in distilled water or 0.5% methylcellulose, 48 h. As to the method: as §1, §2, §3

Setting [7] is: read-out: Inhibition ratio (%) GPT.
The mark [8] stands for this setting: read-out: Inhibition ratio (%) HPT.

With `OCCCSCCc1ccc2c(c1)OCO2` [Compound 4], the inhibition in vivo at 100 mg/kg in assay [1] (setting [7]) was determined as 98%; in assay [1] (setting [8]), 98%; in assay [2], 93%.

As for `O=C(OCCSSCCc1ccc2c(c1)OCO2)c1cccnc1` [Compound 3, 2-[{2-(1,3-Benzodioxol-5-yl)ethyl}dithio]ethyl nicotinate], the values for the inhibition in vivo at 100 mg/kg in assay [3] (setting [7]) and in assay [3] (setting [8]) were 92% and 62%, respectively.

On to `c1cc2c(cc1CCSSCCc1ccc3c(c1)OCO3)OCO2` [Compound 2, Bis{2-(1,3-benzodioxol-5-yl)ethyl}disulfide], for which the inhibition in vivo at 100 mg/kg came to 64% in assay [3] (setting [7]) and 57% in assay [3] (setting [8]).

Regarding `CCC(SCC(=O)O)c1cc2c(cc1C)OCO2` (stereo not shown) [Compound 4], the inhibition in vivo at 100 mg/kg in assay [4] (setting [7]) turned out to be 89%; in assay [4] (setting [8]), 100%.

In the case of `CC(C)(SCC(=O)O)c1ccc2c(c1)OCO2` [Compound 2], the inhibition in vivo at 100 mg/kg in assay [4] (setting [7]) was determined as 76%; in assay [4] (setting [8]), 83%.

Turning to `O=C(O)CCCCSCCc1ccc2c(c1)OCO2` [Compound 11], the figures for the inhibition in vivo at 100 mg/kg in assay [1] (setting [7]), in assay [1] (setting [8]) and in assay [2] were 96%, 98% and 90%, respectively.

For `CC(Cc1ccc2c(c1)OCO2)SSC(C)Cc1ccc2c(c1)OCO2` (stereo not shown) [compound 11], the inhibition in vivo at 100 mg/kg in assay [3] (setting [7]) came to 76%; in assay [3] (setting [8]), 68%.

For the compound `NC(=O)CSCCc1ccc2c(c1)OCO2` [Compound 16], the figures for the inhibition in vivo at 100 mg/kg in assay [1] (setting [7]), in assay [1] (setting [8]) and in assay [2] were 86%, 94% and 61%, respectively.

In the case of `Cc1cc2c(cc1CSCC(=O)O)OCO2` [Compound 6], the inhibition in vivo at 100 mg/kg in assay [4] (setting [7]) and in assay [4] (setting [8]) was 100% each time.

On to `O=C(OCCSSCCCc1ccc2c(c1)OCO2)c1cccnc1` [compound 7], for which the inhibition in vivo at 100 mg/kg came to 72% in assay [3] (setting [7]) and 43% in assay [3] (setting [8]).

Take `O=C(O)CCSCCc1ccc2c(c1)OCO2` [Compound 9]: the results for the inhibition in vivo at 100 mg/kg in assay [1] (setting [7]), in assay [1] (setting [8]) and in assay [2] were 100%, 99% and 98%, respectively.

For the compound `O=C(O)CCCSCCc1ccc2c(c1)OCO2` [Compound 10], the results for the inhibition in vivo at 100 mg/kg in assay [1] (setting [7]), in assay [1] (setting [8]) and in assay [2] were 89%, 99% and 43%, respectively.

On to `OCCSSCCc1ccc2c(c1)OCO2` [Compound 1, 2-[{2-(1,3-Benzodioxol-5-yl)ethyl}dithio]ethanol], for which the inhibition in vivo at 100 mg/kg in assay [3] (setting [7]) is 92%; in assay [3] (setting [8]), 62%.

`OCCSSSCc1ccccc1` [2-[(phenylmethyl)trithio]ethanol]: in assay [5], the “effect as liver trouble remedy” value was “effective as liver trouble remedies”.

Consider `CC(C)(SCC(N)=O)c1ccc2c(c1)OCO2` [Compound 11], for which the values for the inhibition in vivo at 100 mg/kg in assay [4] (setting [7]) and in assay [4] (setting [8]) were 97% and 68%, respectively.

For `CCCCCCCCCSSCCCc1ccc2c(c1)OCO2` [Compound 9, 3-(1,3-Benzodioxol-5-yl)propyl nonyl disulfide], the results for the inhibition in vivo at 100 mg/kg in assay [3] (setting [7]) and in assay [3] (setting [8]) were 53% and 49%, respectively.

`CC(C)c1cc2c(cc1CCSCC(=O)O)OCO2` [Compound 9]: the inhibition in vivo at 100 mg/kg was 88% in assay [4] (setting [7]) and 67% in assay [4] (setting [8]).

Take `NC(=O)CCSCCc1ccc2c(c1)OCO2` [Compound 17]: the inhibition in vivo at 100 mg/kg in assay [1] (setting [7]) came out at 97%; in assay [1] (setting [8]) it was 99%; in assay [2] it was 98%.

As to `CC(Cc1ccc2c(c1)OCO2)SSCCO` (stereo not shown) [Compound 12, 2-[{2-(1,3-Benzodioxol-5-yl)-1-methylethyl}dithio]ethanol], the figures for the inhibition in vivo at 100 mg/kg in assay [3] (setting [7]) and in assay [3] (setting [8]) were 63% and 45%, respectively.

With `c1ccc(CCSSCCCc2ccc3c(c2)OCO3)cc1` [Compound 6, 3-(1,3-Benzodioxol-5-yl)propyl phenethyl disulfide], the inhibition in vivo at 100 mg/kg in assay [3] (setting [7]) came to 55%; in assay [3] (setting [8]), 53%.

For the compound `C[S+]([O-])CCc1ccc2c(c1)OCO2` (stereo not shown) [Compound 26], the inhibition in vivo at 100 mg/kg in assay [1] (setting [7]) amounted to 100%; in assay [1] (setting [8]), 100%; in assay [2], 97%.

For the compound `O=C(O)CSCCc1ccc2c(c1)OCO2` [Compound 8], in assay [2], the inhibition in vivo at 100 mg/kg amounted to 53%.

`CS(=O)(=O)CCc1ccc2c(c1)OCO2` [Compound 28]: the inhibition in vivo at 100 mg/kg in assay [1] (setting [7]) came out at 95%; in assay [1] (setting [8]), 98%; in assay [2], 97%.

As to `Cc1cc2c(cc1C(C)SCC(N)=O)OCO2` (stereo not shown) [Compound 13], the inhibition in vivo at 100 mg/kg came out at 50% in assay [4] (setting [7]) and 17% in assay [4] (setting [8]).

As to `Cc1cc2c(cc1C(C)SCC(=O)O)OCO2` (stereo not shown) [Compound 3], the inhibition in vivo at 100 mg/kg in assay [4] (setting [7]) and in assay [4] (setting [8]) was 100% each time.

Consider `CCCC(SCC(=O)NCC(=O)O)c1ccc2c(c1)OCO2` (stereo not shown) [Compound 17], for which the inhibition in vivo at 100 mg/kg in assay [4] (setting [7]) stood at 91%; in assay [4] (setting [8]) it was 70%.

`CC(C)S(=O)(=O)CCc1ccc2c(c1)OCO2` [Compound 36]: the inhibition in vivo at 50 mg/kg in assay [6] (setting [7]) was determined as 59%; in assay [6] (setting [8]), 68%.

With `O=C(OCCSSCc1ccc2c(c1)OCO2)c1cccnc1` [Compound 10, 2-[{(1,3-Benzodioxol-5-yl)methyl}dithio]ethyl nicotinate], the values for the inhibition in vivo at 100 mg/kg in assay [3] (setting [7]) and in assay [3] (setting [8]) were 72% and 43%, respectively.

Regarding `CC(=O)CSCCc1ccc2c(c1)OCO2` [Example 1, [{2-(1,3-Benzodioxol-5-yl)ethyl}thio]propan-2-one], the inhibition in vivo at 50 mg/kg in assay [6] (setting [7]) stood at 89%; in assay [6] (setting [8]), 100%.

As to `CCCC(SCC(=O)O)c1ccc2c(c1)OCO2` (stereo not shown) [Compound 1], the inhibition in vivo at 100 mg/kg in assay [4] (setting [7]) amounted to 84%; in assay [4] (setting [8]), 100%.

As to `OC1OCC(Cc2ccc3c(c2)OCO3)C1Cc1ccc2c(c1)OCO2` (stereo not shown) [cubebin], in assay [5], the “effect as liver trouble remedy” value was “effective as liver trouble remedies”.

For `CC(CC(=O)O)SCCc1ccc2c(c1)OCO2` (stereo not shown) [Compound 13], the inhibition in vivo at 100 mg/kg came out at 99% in assay [1] (setting [7]), 99% in assay [1] (setting [8]) and 86% in assay [2].

In the case of `CCOC(=O)CSCCc1ccc2c(c1)OCO2` [Compound 25], the figures for the inhibition in vivo at 100 mg/kg in assay [1] (setting [7]), in assay [1] (setting [8]) and in assay [2] were 34%, 61% and 21%, respectively.
